{
  "source": "patent US20250025452A1",
  "about": "(Clearside Biomedical, Inc., priority 2023, published 2025)",
  "test": "Solubility (product profile)",
  "type": "physicochemical",
  "details": "API",
  "description": "Further information providing the solubility, particle size, viscosity, and other product profile parameters of exemplary CLS-AX compositions (active pharmaceutical ingredient (API); and drug product) are provided in Table 1C.",
  "data": [
    {"smiles": "CNC(=O)c1ccccc1Sc1ccc2c(/C=C/c3ccccn3)n[nH]c2c1", "note": "[Axitinib]", "values": [
      {"measurement": "Solubility (solvent)", "result": "DMSO"}
    ]}
  ]
}
